In experiment [1] the target is T1, Rat Striatal Nicotinic Receptors (Rattus norvegicus, UniProt P09483+P12390).
T1 construct: from tissue; host or cells: rat striatal membranes
As to the kind of experiment: Inhibition of [3H]Nicotine (NIC) binding assay, rat striatal membranes. Particulars: % inhibition at 100 nM concentration of analog, 3 nM [3H]NIC. The procedure: Striata from two rats were dissected, pooled, and homogenized with a Tekmar polytron in 10 vol of ice-cold modified Krebs-HEPES buffer (20 mM HEPES, 118 mM NaCl, 4.8 mM, KCl, 2.5 mM CaCl2, 1.2 mM MgSO4, adjusted to pH 7.5). The homogenates were incubated at 37° C. for 5 minutes and centrifuged at 15,000 g for 20 minutes. The pellet was resuspended in 10 volumes of ice-cold MilliQ water, incubated for 5 minutes at 37° C., and centrifuged at 15,000 g for 20 minutes. The second pellet was then resuspended in 10 volumes of fresh ice-cold 10% Krebs-HEPES buffer, incubated at 37° C., and centrifuged at 15,000 g for 20 minutes. The latter sequence of resuspension, incubation and centrifugation was repeated. The pellet was frozen under fresh 10% Krebs-HEPES buffer and stored at −40° C. until assay. Upon assay, the pellet was resuspended in Krebs-HEPES buffer, incubated at 37° C. for 5 minutes, and centrifuged at 15,000 g for 20 minutes. The final pellet was resuspended in 3.6 mL ice-cold MilliQ water which provided for approximately 200 μg protein per 100 μL aliquot. Competition assays were performed in duplicate in a final volume of 200 μL Krebs-HEPES buffer containing […] Tris buffer (pH 7.5 at 4° C.). Reactions were initiated by addition of 100 μL of membrane suspension to 3 nM [^3H]NIC (50 μL) and one of at least nine concentrations of analog (50 μL). After a 90 minute incubation at 4° C., reactions were terminated by dilution of the samples with 3 mL of ice-cold Krebs-HEPES buffer followed immediately by filtration through Whatman GF/B glass fiber filters (presoaked in 0.5% polyethyleneimine) using a Brandel Cell Harvester. Filters were rinsed three times with 3 mL of ice-cold Krebs-HEPES buffer, transferred to scintillation vials, and 5 mL scintillation cocktail (Research Products international Corp., Mt. Prospect, Ill.) added. Nonspecific binding determined in triplicate was defined as binding in the presence of 10 μM NIC. Binding parameters were determined using the weighted, least squares non-linear regression. The tris-quaternary ammonium salts were evaluated for their ability to displace [^3H]NIC binding from rat striatal membranes.
(§1) Data are % inhibition at 100 nM concentration of analog for at least 1-3 independent experiments. Specific binding in the [^3H]NIC binding assay is calculated at the difference between the total binding of [^3H]NIC and nonspecific binding in the presence of 10 μM cold nicotine. Specific binding for the [^3H]MLA binding assay is calculated as the difference between the total binding of 2.5 nM [^3H]MLA to the receptors alone and its nonspecific binding in the presence of 1 μM cold MLA. Analog-induced inhibition of nicotine-evoked [^3H]DA release is calculated as a percent of that in the absence of analog.

Experiment [2] addresses T2, α7-type neuronal nicotinic acetylcholine receptors (Rattus norvegicus, UniProt Q05941).
T2 construct: from tissue; host or cells: rat brain membranes (whole brain without cortex, striatum and cerebellum)
As to the kind of experiment: Inhibition of [3H]Methyllycaconitine (MLA) binding assay, rat brain membranes. Particulars: % inhibition at 100 nM concentration of analog; rat brain membranes; 2.5 nM [3H]MLA; read-out: Inhibition of [3H]MLA binding. As for the experimental part:
Rat brain was dissected into the whole brain tissue without cortex, striatum and cerebellum and was frozen in liquid nitrogen and stored at −70° C. until use. The brain tissue was homogenized with a Tekmar Polytron (setting 40) in 20 volumes of ice-cold hypotonic buffer (2 mM HEPES, 14.4 mM NaCl, 0.15 mM KCl, 0.2 mM CaCl2 and 0.1 mM MgSO4, pH=7.5). The homogenate was incubated at 37° C. for 10 minutes and centrifuged at 25,000 g for 15 minutes at […] The pellet was washed 3 times more by resuspension in 20 volumes of the same buffer and centrifugation at the above parameters. The final pellet was stored at −20° C. under 4.6 mL of the incubation buffer and was suspended just before the incubation with radioligand.
The binding of [^3H]MLA to probe α7-type neuronal nicotinic acetylcholine receptors was measured using a modification of the method of Davies at al., “Characterisation of the binding of [^3H]methyllycaconitine (MLA): a radioligand for labelling α7-type neuronal nicotinic acetylcholine receptors,” Neuropharmacology, 38, 679-690 (1999). [^3H]MLA (25.4 Ci/mmol) was purchased from Tocris Cookson Ltd., Bristol, U.K. Binding was performed in duplicate, in a final volume of 250 μL of the incubation medium, containing 20 mM HEPES, 144 mM NaCl, 1.5 mM KCl, 2 mM CaCl2, 1 mM MgSO4 and 0.05% BSA, pH=7.5. Reaction was initiated by the addition of 100 μL of membrane suspension to the samples containing a desired concentration of test compounds and […] [^3H]MLA (final concentration) and incubated for 2 hours it room temperature. Total binding was measured in the absence of unlabelled ligand, and nonspecific binding was determined by the presence of 1 μM unlabelled MLA. The binding reaction was terminated by dilution of samples with 3 mL of ice-cold incubation buffer followed by immediate filtration through glass fiber filters (S&S, grade #32, presoaked in 0.5% polyethylenimine) using a Brandel harvester system. Filters were rinsed three times with 3 mL of ice-cold buffer, transferred to scintillation vials and 4 mL of scintillation cocktail was added. Protein was measured using the Bradford dye-binding procedure with bovine serum albumin as the standard.
The tris-quaternary ammonium salts were evaluated for their ability to displace [^3H]MLA binding from rat brain membranes.
as §1

T2 sequence (Q05941 23-502): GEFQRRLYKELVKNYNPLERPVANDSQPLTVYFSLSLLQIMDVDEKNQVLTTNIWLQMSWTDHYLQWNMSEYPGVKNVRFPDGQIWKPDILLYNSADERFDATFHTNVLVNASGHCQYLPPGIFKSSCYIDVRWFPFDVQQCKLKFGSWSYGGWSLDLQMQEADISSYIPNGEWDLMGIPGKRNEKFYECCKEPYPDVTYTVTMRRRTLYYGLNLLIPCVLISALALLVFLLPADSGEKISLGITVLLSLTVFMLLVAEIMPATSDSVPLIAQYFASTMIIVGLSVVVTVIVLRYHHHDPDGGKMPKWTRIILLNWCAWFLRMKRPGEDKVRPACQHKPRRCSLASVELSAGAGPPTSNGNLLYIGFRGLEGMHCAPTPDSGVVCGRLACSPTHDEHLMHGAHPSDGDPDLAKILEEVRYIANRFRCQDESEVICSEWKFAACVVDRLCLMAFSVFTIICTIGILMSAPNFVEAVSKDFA
T1 sequence (P09483 31-630): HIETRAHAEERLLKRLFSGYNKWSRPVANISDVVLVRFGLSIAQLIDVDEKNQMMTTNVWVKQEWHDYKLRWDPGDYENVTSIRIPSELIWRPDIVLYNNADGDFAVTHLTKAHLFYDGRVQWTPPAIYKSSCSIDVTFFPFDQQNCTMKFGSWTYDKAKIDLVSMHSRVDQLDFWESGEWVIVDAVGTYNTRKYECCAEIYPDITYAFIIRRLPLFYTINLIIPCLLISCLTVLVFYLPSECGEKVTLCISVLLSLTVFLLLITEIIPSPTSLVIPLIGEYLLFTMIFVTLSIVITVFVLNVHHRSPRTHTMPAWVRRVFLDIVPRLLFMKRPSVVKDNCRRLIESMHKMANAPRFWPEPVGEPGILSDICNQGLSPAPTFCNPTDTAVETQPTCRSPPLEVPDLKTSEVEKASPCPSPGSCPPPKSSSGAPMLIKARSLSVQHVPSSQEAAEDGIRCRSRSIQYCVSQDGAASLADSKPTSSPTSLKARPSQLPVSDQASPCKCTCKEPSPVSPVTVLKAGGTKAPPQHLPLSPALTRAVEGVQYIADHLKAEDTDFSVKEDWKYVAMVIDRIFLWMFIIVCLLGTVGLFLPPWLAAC
T1 sequence (P12390 25-500): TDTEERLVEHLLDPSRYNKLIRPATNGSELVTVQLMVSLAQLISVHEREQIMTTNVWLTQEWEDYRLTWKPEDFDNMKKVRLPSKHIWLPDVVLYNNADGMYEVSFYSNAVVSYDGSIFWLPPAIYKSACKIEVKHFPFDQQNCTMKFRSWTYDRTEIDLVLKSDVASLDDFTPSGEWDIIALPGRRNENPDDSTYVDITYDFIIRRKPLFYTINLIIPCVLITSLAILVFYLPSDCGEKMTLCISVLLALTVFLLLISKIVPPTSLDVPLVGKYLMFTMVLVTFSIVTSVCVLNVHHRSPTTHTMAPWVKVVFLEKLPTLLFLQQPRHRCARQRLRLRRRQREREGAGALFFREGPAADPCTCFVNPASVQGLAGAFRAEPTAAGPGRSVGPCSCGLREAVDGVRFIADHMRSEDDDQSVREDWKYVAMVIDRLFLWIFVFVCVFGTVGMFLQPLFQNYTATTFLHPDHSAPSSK

Broadly, the inhibition is the share of the control response that was lost under treatment. Consider `CCCCc1ccc[n+](CCCC#Cc2cc(C#CCCC[n+]3cccc(CCCC)c3)cc(C#CCCC[n+]3cccc(CCCC)c3)c2)c1` [GZ551A, 1,3,5-tris-[5-(3-butyl-pyridinium)-pent-1-ynyl]-benzene tribromide], for which the values for the inhibition at 0.1 µM in experiment [1] and in experiment [2] were 6.8 ± 2% and 30 ± 2%, respectively.
On the same counts, the results for `CN1CCC[C@H]1c1ccc[n+](CCCC#Cc2cc(C#CCCC[n+]3cccc([C@@H]4CCCN4C)c3)cc(C#CCCC[n+]3cccc([C@@H]4CCCN4C)c3)c2)c1` [GZ551B, 1,3,5-tris-{5-[3-(1-methyl-2-S-pyrrolidinyl)pyridinium]-pent-1-ynyl}-benzene tribromide] are 44 ± 3.1% and 4.2 ± 2.2%.
In the case of `CN1CCC[C@H]1c1ccc[n+](CCCCCc2cc(CCCCC[n+]3cccc([C@@H]4CCCN4C)c3)cc(CCCCC[n+]3cccc([C@@H]4CCCN4C)c3)c2)c1` [GZ558C, 1,3,5-tris-{5-[3-(1-methyl-2-S-pyrrolidinyl)pyridinium]-pentyl}-benzene tribromide], the inhibition at 0.1 µM in experiment [1] came to 81 ± 2.3%; in experiment [2], 7.9 ± 7.1%.

(Values after patent publication US8940774B2, “Tris-Quaternary Ammonium Salts and Methods for Modulating Neuronal Nicotinic Acetylcholine Receptors” (University of Kentucky Research Foundation, priority 2005, dated 2015).)
